Data reported in US10300130B2, “Cytomegalovirus vaccines and methods of production” (The Trustees of Princeton University, priority 2007, dated 2019).

Assays:
BADrUL131 = experiment: Dependence of infection on endosome acidification (IE1-positive ARPE-19 cells), BADrUL131; format: cell-based, HCMV; conditions: 1 h pretreatment, 1 pfu/cell, IE1 16 h later
Procedure: (§1) FIGS. 3A-3B. Effects of inhibitors of endosome acidification and virion source on HCMV entry into ARPE-19 cells. Experiments were performed in triplicate, and the number of positive cells in drug-treated relative to untreated cultures is reported. FIG. 3A: Cells were pretreated with NH4Cl or BFA for 1 h, inoculated with epiBADrUL131 or fibroBADrUL131 (1 pfu/cell) and stained for IE 1 16 h later. FIG. 3B: Cells were pretreated with 50 mM NH4Cl or 40 nM BFA for 1 h, and then inoculated with BADrUL131 (0.1 pfu/cell) or FIXwt (0.01 pfu/cell) produced in the indicated cell types and stained for IE1 16 h later.
(§2) ARPE-19 cells were pretreated with NH4Cl or Bafilomycin A1 (BFA) (Sigma) for 1 h at 37° C., followed by infection in the continued presence of the inhibitor. 16 h later, cultures were fixed in 2% paraformaldehyde and permeabilized with 0.1% Triton X-100. IE1 was identified by immunofluorescence using monoclonal antibody IB12 (21) plus Alexa 546-conjugated secondary antibody and nuclei were stained with DAPI. Inhibition was calculated as the percentage of IE1-expressing drug-treated relative to untreated cells.
Many viruses that enter cells by endocytosis (1, 4, 10) require acidification of endosomes for the virion envelope to fuse with the endosomal membrane and release the capsid into the cytoplasm. NH4Cl. which buffers endosomal pH, and bafilomycin A1 (BFA), which blocks the endosomal ATPase proton pump, were tested for their effect on infection of ARPE-19 cells. After pretreatment with either agent, cells were infected and cultured in drug containing medium for a further 16 h. Successful infections were scored by assaying for IE1-positive cells.

BFXwt = experiment: Dependence of infection on endosome acidification (IE1-positive ARPE-19 cells), BFXwt; format: cell-based, HCMV; conditions: 50 mM NH4Cl or 40 nM BFA, 0.01 pfu/cell
Procedure: as §1, §2
The effect of endosomal pH on entry of the BFXwt clinical isolate into ARPE-19 cells was also assayed (FIG. 3B. right panel).

Row | Structure (SMILES) | effect of pretreatment on epiBADrUL131 infection (IE1-positive cells) (BADrUL131) | effect of pretreatment on fibroBADrUL131 infection (IE1 expression) (BADrUL131) | effect on number of IE1-positive ARPE-19 cells, epithelial cell-derived BFXwt (BFXwt) | effect on number of IE1-positive ARPE-19 cells, fibroblast-generated BFXwt (BFXwt)
1 | Cl.N [NH4Cl] | only a modest effect | inhibited IE1 expression | only a slight inhibition | significantly reduced
2 | CO/C1=C\C(C)=C\[C@@H](C)[C@@H](O)[C@@H](C)C/C(C)=C/C=C/[C@H](OC)[C@@H]([C@@H](C)[C@@H](O)[C@H](C)[C@@]2(O)C[C@@H](O)[C@H](C)[C@@H](C(C)C)O2)OC1=O [BFA, Bafilomycin A1] | only a modest effect | inhibited IE1 expression | only a slight inhibition | significantly reduced
